In patent publication US20110223633A1, “METHODS AND REAGENTS FOR ENRICHMENT AND CHARACTERIZATION OF PHOSPHORYLATED BIOMOLECULES” (priority 2008, published 2011):
Where “and” joins values, the source holds several entries; their conditions need not be identical. Equal values may be shown once.

System: lipid droplet (LD) proteins from mouse white adipose tissue (WAT)
Assay: Stoichiometry of LD protein phosphorylation by isotope tagging and enzymatic (BIAP) dephosphorylation after CL316,243 injection
Type: in vivo
Protocol: Purification of lipid droplets (LD) from mouse white adipose tissue (WAT). All animals were maintained in the Canadian Council on Animal Care (CCAC)-accredited animal facilities of the CHU Ste-Justine Research Center. Two month-old (˜25-29 g BW) male C57BU6J mice, were purchased from Charles River Canada (St. Constant, PQ, Canada), and housed for an additional month at 25° C. in an animal facility with 12:12 h light-dark cycles. During this time, animals were fed ad libitum with 5K chow (˜18% protein, ˜6% fat, ˜5% fiber). […] The homogenate was filtered through a nylon mesh and centrifuged at 17 g for 2 min. Pellet and infranatant were removed and the floating lipid droplets resuspended in 2 ml of the homogenization buffer and centrifuged as above. After the second wash with 50 mM TRIS, pH 7.4, containing 1 M NaCl (Fisher), the LD were snap-frozen and kept at −80° C. until further use.
Extraction of LD proteins and preparation of peptide digests. Purified LD preparations (average wet weight 250 mg) were resuspended in 1 ml of ice-cold acetone, sonicated for 25 sec at 80 W, incubated for 16 h at −20° C. and centrifuged for 10 min at 13,000 g. The supernatants were discharged and pellets were re-extracted twice with ice-cold acetone (1 h each time). After removal of residual acetone under a stream of nitrogen, the protein pellets were re-suspended in 300 μl of a 0.1% sodium 3-[(2-methyl-2-undecyl-1,3-dioxolan-4-yl)methoxyl]-1-propanesulfonate (RapiGest™ SF) in 50 mM NH4HCO3, pH 7.8, containing 5 mM DTT, then sonicated for 10-25 sec and incubated in a boiling bath for 5 min. After 5-min centrifugation at 13,000 g, supernatants were treated for 30 min with IAA in the dark (final concentration 15 mM), and digested overnight with trypsin (Promega, sequencing grade; trypsin to protein ratio 1:50). After digestion, samples were supplemented with TFA (final concentration 0.5%), incubated at 37° C. for 1 h and centrifuged at 13,000 g for 10-min to remove RapiGest™ SF.
Labeling and dephosphorylation of LD peptides. Peptide digests (˜200 μg of protein) were de-salted by the reverse phase chromatography on macro-C18 spin columns (Harvard apparatus) eluted with 70% acetonitrile in water, dried in a SpeedVac™ Concentrator (Savant) and labeled with heavy or light SIMPL (Stable Isotope-containing Multiplex Peptide Labels) isotope tags as described (Fedjaev et al., 2007, supra). After adjusting pH to 8.0 with 500 mM NH4HCO3, samples were supplemented with 3 units of bovine intestinal alkaline phosphatase (BIAP, Sigma, P-5521) and incubated for 3 h at 37° C. BIAP reaction was terminated by addition of concentrated TCA (Sigma) to a final concentration 10%, followed by 1 h incubation on ice and 30-min centrifugation at 13,000 g. Samples containing dephosphorylated peptides were then mixed 1:1 with untreated samples, extracted twice with ethylacetate (Sigma) to remove the excess of unreacted SIMPL labels and analyzed by 2D-LC-MS/MS as described below.
HPLC of peptides on weak anion exchange (WAX) column. Offline WAX HPLC was performed on an Agilent™ 1100 Series liquid chromatography system. Peptides were loaded on C18 (Jupiter™ 4 μm Proteo 90 Å 50×1 mm, Phenomenex) column in 10 mM ammonium acetate containing 10% ACN, and eluted with step gradient of 70% of ACN directly on the WAX (PolySulfoethyl A […] 5 μm 300 Å) column. The column was washed with 10 mM ammonium acetate buffer containing 10% ACN for 10 min and peptides were eluted with 0-100% gradient of 2 M ammonium formate, 10% ACN. […] fractions of 50 μl were collected. Collected fractions were immediately acidified with FA (final concentration 0.2%) and analyzed by LC-MS/MS.
μLC-MS/MS analysis of LD peptides. Peptides were analyzed using a LC-MS/MS instrument consisting of an Agilent™ 1100 Series nanoflow liquid chromatography system and LC/MSD-Trap-SL™ ion trap mass spectrometer (Agilent Technologies, Santa Clara, Calif., USA). […]

Compound: C[C@H](Cc1ccc2c(c1)OC(C(=O)[O-])(C(=O)[O-])O2)NC[C@H](O)c1cccc(Cl)c1.[Na+].[Na+] [CL316,243, disodium 5-[(2R)-2-[[(2R)-2-(3-Chlorophenyl)-2-hydroxyethyl]amino]propyl]-1,3-benzodioxole-2,2-dicarboxylate]
- Mean isotope ratio Treated, peptide KLLVSSEDYGR (Alpha II spectrin, LD from WAT, 1 mg/kg i.p., 15 min): 3.47
- Ratio Treated, peptide SSEEIESAFR (Alpha-II spectrin, z 2, m/z 668.3, LD from WAT of treated mice): 0.64(2)
- Ratio Treated, peptide DLTNVQNLQK (Alpha-II spectrin, z 2, m/z 674.3, LD from WAT of treated mice): 0.98(1)
- Ratio Treated, peptide SQLLGSAHEVQR (Alpha-II spectrin, z 2, m/z 750.4, LD from WAT of treated mice): 1.05(4)
- Ratio Treated, peptide DTEQVDNWMSK (Alpha-II spectrin, z 2, m/z 764.7, LD from WAT of treated mice): 1.03(1)
- Ratio Treated, peptide TKQDEVNAAWQR (Alpha-II spectrin, z 2, m/z 813.4, LD from WAT of treated mice): 0.84(1)
- Ratio Treated, peptide EANELQQWITEK (Alpha-II spectrin, z 2, m/z 832.4, LD from WAT of treated mice): 1.1(3)
- Ratio Treated, peptide MQHNLEQQIQAR (Alpha-II spectrin, z 2, m/z 835.9, LD from WAT of treated mice): 0.94(3)
- Ratio Treated, peptide HQAFEAELSANQSR (Alpha-II spectrin, z 2, m/z 881.9, LD from WAT of treated mice): 1.24(2)
- Ratio Treated, peptide LIQEQHPEEELIK (Alpha-II spectrin, z 2, m/z 891.5, LD from WAT of treated mice): 1.09(4)
- Ratio Treated, peptide HQAFEAELHANADR (Alpha-II spectrin, z 2, m/z 892.5, LD from WAT of treated mice): 0.84(3)
- Ratio Treated, peptide HQLLEADISAHEDR (Alpha-II spectrin, z 2, m/z 908.1, LD from WAT of treated mice): 1.04(2)
- Ratio Treated, peptide GNAMVEEGHFAAEDVK (Alpha-II spectrin, z 2, m/z 940, LD from WAT of treated mice): 1.1(2)
- Ratio Treated, peptide AQLADSFHLQQFFR (Alpha-II spectrin, z 2, m/z 945, LD from WAT of treated mice): 1.04(1)
- Ratio Treated, peptide LSDDNTIGQEEIQQR (Alpha-II spectrin, z 2, m/z 961.3, LD from WAT of treated mice): 1.25(1)
- Ratio Treated, peptide DLAALGDKVNSLGETAQR (Alpha-II spectrin, z 2, m/z 1020, LD from WAT of treated mice): 1.29(1)
- Ratio Treated, peptide SSLSSAQADFNQLAELDR (Alpha-II spectrin, z 2, m/z 1064, LD from WAT of treated mice): 0.99(3)
- Ratio Treated, peptide SADESGQALLAASHYASDEVR (Alpha-II spectrin, z 2, m/z 1177, LD from WAT of treated mice): 1.14(3)
- Ratio Treated, peptide NQALNTDNYGHDLASVQALQR (Alpha-II spectrin, z 2, m/z 1253, LD from WAT of treated mice): 0.91(3)
- Ratio Treated, peptide HQAFEAELHANADR (Alpha-II spectrin, z 3, m/z 597.6, LD from WAT of treated mice): 0.81(1)
- Ratio Treated, peptide SADESGQALLAASHYASDEVR (Alpha-II spectrin, z 3, m/z 785, LD from WAT of treated mice): 1.1(3)
- Mean isotope ratio Treated, peptide THVDSLR (Apolipoprotein A-I, BIAP-treated/untreated, LD from WAT, 1 mg/kg i.p., 15 min): −1.12
- Ratio Treated, peptide (K)VQPYLDEFQK(K) (Apolipoprotein A-I, z 2, m/z 721.2, LD from WAT of treated mice): 0.97(2)
- Ratio Treated, peptide (R)TQLAPHSEQMR(E) (Apolipoprotein A-I, z 2, m/z 736.9, LD from WAT of treated mice): 0.99(1)
- Ratio Treated, peptide (K)SNPTLNEYHTR(A) (Apolipoprotein A-I, z 2, m/z 753.9, LD from WAT of treated mice): 1(4)
- share of HSL peptide SVSEAALAQPEGLLGTDTLKK phosphorylated (LD of stimulated adipocytes): ~80%
- Mean isotope ratio Treated, peptide SVSEAALAQPEGLLGTDTLK (Lipase, hormone sensitive, LD from WAT, 1 mg/kg i.p., 15 min): 5.1
- Ratio Treated, peptide (R)LILTPPAAPLN(—) (Lipase, hormone sensitive, z 2, m/z 647.8, LD from WAT of treated mice): 0.78(1)
- Ratio Treated, peptide (R)AAFPEGFHPR(R) (Lipase, hormone sensitive, z 2, m/z 652.3, LD from WAT of treated mice): 1.14(2)
- Ratio Treated, peptide (R)QATEFCVQR(I) (Lipase, hormone sensitive, z 2, m/z 657.2, LD from WAT of treated mice): 1.01(3)
- Ratio Treated, peptide (K)HCDLLGSTGER(I) (Lipase, hormone sensitive, z 2, m/z 710.3, LD from WAT of treated mice): 1(4)
- Ratio Treated, peptide (K)CVSAYSGTEAEDHFDSDQK(A) (Lipase, hormone sensitive, z 2, m/z 1164, LD from WAT of treated mice): 1.08(1)
- Ratio Treated, peptide (K)CVSAYSGTEAEDHFDSDQK(A) (Lipase, hormone sensitive, z 3, m/z 774.6, LD from WAT of treated mice): 0.92(1)
- Mean isotope ratio Treated, peptide FVEGLPINDFSR(E) (Malate dehydrogenase, cytoplasmic, LD from WAT, 1 mg/kg i.p., 15 min): 3.08
- Ratio Treated, peptide (K)GEFITTVQQR(G) (Malate dehydrogenase, cytoplasmic, z 2, m/z 677.3, LD from WAT of treated mice): 1.18(2)
- Mean isotope ratio Treated, peptide GLSAPSCPNGLDDK (Perilipin, LD from WAT, 1 mg/kg i.p., 15 min): 1.4
- Mean isotope ratio Treated, peptide LSLMEPESEFRDIDNPSAEAER (Perilipin, LD from WAT, 1 mg/kg i.p., 15 min, 1 mg/kg): 1.6 and 1.63
- Ratio Treated, peptide GLDHLEEK (Perilipin, z 2, m/z 558.3, LD from WAT of treated mice): 1.05(4)
- Ratio Treated, peptide EVTALPNPR (Perilipin, z 2, m/z 587.2, LD from WAT of treated mice): 1.1(4)
- Ratio Treated, peptide ETAEYAANTR (Perilipin, z 2, m/z 650.7, LD from WAT of treated mice): 0.71(1)
- Ratio Treated, peptide IPALQYPPEK (Perilipin, z 2, m/z 665.5, LD from WAT of treated mice): 1.01(4)
- Ratio Treated, peptide EAHPLVASVCNAYEK (Perilipin, z 2, m/z 932, LD from WAT of treated mice): 1.06(4)
- Ratio Treated, peptide VLQLPWSGTCECFQK (Perilipin, z 2, m/z 1020, LD from WAT of treated mice): 0.98(4)
- Ratio Treated, peptide GVQGASNLAAWSMEPVVR (Perilipin, z 2, m/z 1024, LD from WAT of treated mice): 1(2)
- Ratio Treated, peptide GVTDNVVDTVVHYVPLPR (Perilipin, z 2, m/z 1078, LD from WAT of treated mice): 0.93(3)
- Ratio Treated, peptide GPTLLDGDLPEQENVLQR (Perilipin, z 2, m/z 1085, LD from WAT of treated mice): 1.05(4)
- Ratio Treated, peptide VLQLPWSGTCECFQK (Perilipin, z 3, m/z 680.8, LD from WAT of treated mice): 1.17(2)
- Ratio Treated, peptide GVQGASNLAAWSMEPVVR (Perilipin, z 3, m/z 683, LD from WAT of treated mice): 1(2)
- Ratio Treated, peptide VVEFLLPPDKESAPSSGR (Perilipin, z 3, m/z 701.8, LD from WAT of treated mice): 1.11(4)
- Ratio Treated, peptide GVTDNVVDTVVHYVPLPR (Perilipin, z 3, m/z 719.3, LD from WAT of treated mice): 1(3)
- Ratio Treated, peptide GPTLLDGDLPEQENVLQR (Perilipin, z 3, m/z 723.9, LD from WAT of treated mice): 1.01(4)
- Mean isotope ratio Treated, peptide SHDTTSNTLTQLLAK (Protein kinase C delta binding protein, LD from WAT, 1 mg/kg i.p., 15 min): 1.11
- Ratio Treated, peptide (R)LEANHGLLVAR(G) (Protein kinase C delta binding protein, z 2, m/z 684.4, LD from WAT of treated mice): 0.94(2)
- Ratio Treated, peptide (K)EDPEKPVLQIESAA(—) (Protein kinase C delta binding protein, z 2, m/z 854.9, LD from WAT of treated mice): 0.74(1)
